Data on three molecules can be found in patent US12280026B2, “Use of repirinast in the prophylaxis or treatment of renal fibrosis or kidney disease” (ALGERNON PHARMACEUTICALS INC., priority 2018, dated 2025).

“Also recorded” adds a separate entry of the source.

Common to all, as to type: in vivo
Test [1] can be described thus: Example 1: UUO mice, mean body weight change following surgery. Conditions: Example 1, mostly post-surgical day 14, male C57BL/6 mice, PO QD days 1-14, doses of Table 1. As for the experimental part: (§1) Male 9-12 week old C57BL/6 mice of 23-25 grams body weight were used. All mice were acclimated for a minimum of 5 days prior to the start of the study and housed individually in microisolators throughout the study in a 12:12 light-dark cycle on a standard maintenance mouse chow diet (Harlan Teklad 2018) with food and water given ad libitum. Prior to surgery, all mice were weighed for baseline body weight.
(§2) The UUO surgical intervention was performed according to previously described methods known in the art (Le Meur Y et al., Macrophage accumulation at a site of renal inflammation is dependent on the M-CSF/c-fms pathway, J Leukocyte Biol., 72:530-537; 2002).
(§3) All mice were first anesthetized by intraperitoneal injection with a rodent cocktail (ketamine 10 mg/mL and Xyaline 1 mg/mL) in normal saline (10 μL/g body weight). Pedal reflex and movement of the vibrissae were used to determine the state of unconsciousness. A state of unconsciousness was confirmed after a period of about 5 minutes in all animals. All mice were then shaved on the left side of the abdomen. The shaved area was first swabbed with iodine and then swabbed with alcohol. A vertical incision was made through the skin with a #22 scalpel and the skin was then retracted. A further incision of about 2.5 cm was then made through the peritoneum avoiding any major blood vessels. The peritoneum was then retracted and the left kidney was exposed.
(§4) The left kidney was then brought to the surface by hooking the ureter directly beneath the kidney with sterile forceps and gently manipulating the kidney upward. The ureter was ligated at two points directly below the kidney with 5-0 surgical silk with excess suture cut away and discarded post-ligation. The kidney was then gently placed back to its correct anatomical position and the abdomen was lavaged with 1 mL sterile saline to replenish fluid loss. The peritoneum and then skin were sutured with 5-0 Mersilene, and the incision site was gently wiped with iodine. All mice were then placed individually in clean cages that were set on top of a thermal blanket until recovery at about 30-60 minutes later. In some examples, sham surgery was performed as a control by following all steps of the UUO surgical intervention procedure except ligation.
(§5) Following surgery, the mice were divided into 14 individual study groups of 8 mice each and, following post-surgical recovery, administered a once-daily oral treatment for 14 days. The mice in 12 of the 14 study groups (hereafter known as “treatment groups”) had all received the UUO surgical ligation and were treated individually with a distinct pharmacologic compound as set out in Table 1. The mice in 2 of the 14 study groups were treated individually with a pharmaceutically acceptable vehicle with no active ingredient. The pharmaceutically acceptable vehicle in all groups was 0.5% carboxymethyl cellulose (CMC). All mice were sacrificed with CO2 on post-surgical day 15.
(§6) The dose selected for the animal studies was determined by taking the maximum known human daily dose, dividing by the average weight of an adult (˜60-70 kg) to get a human mg/kg dose. […]
Body weight: The body weights were measured on days 1, 2, 5, 8, 10 and 14 using a laboratory balance.
Body weights were measured on post-surgical days 1, 2, 5, 8, 10 and 14 as previously described. The mean body weight change of each study group was calculated using the body weight average of all mice in each study group.

In test [2] the test system is C57BL/6 mice with UUO surgical ligation. In words: Example 1: UUO mice, kidney weight evaluation (ligated vs non-ligated kidney). Conditions: doses of Table 1. Here is the method: as §1
The UUO surgical intervention was performed according to previously described methods known in the art (Le Meur Y et al., Macrophage accumulation at a site of renal inflammation is dependent on the M-CSF/c-fms pathway, J Leukocyte Biol., 72:530-537; 2002). […]
as §6
Kidney weight: The UUO was then examined in situ to ensure that the surgical ligation ties remained patent. […] Weights of both kidneys were measured using a laboratory balance.
Kidney Weight Evaluation: Kidney weight indicating, which indicates functional and pathological changes in the kidney, was evaluated by measuring the weight of both the ligated (UUO) and non-ligated kidneys as previously described. […]

For test [3] the test system is unchanged. The test is described as follows: Example 1: UUO mice, renal function evaluation (plasma BUN, creatinine). The following applies: Example 1; for Reduction in BUN compared to vehicle, significance in words: Bonferroni post-test, Suplatast Tosylate 60, Iguratimod 15, Lobenzarit 48, Actarit 60, Udenafil 40 mg/kg PO QD; for BUN in comparison to control groups, in words: UUO, male C57BL/6 mice, PO QD days 1-14, doses of Table 1. Here is the method:
as §1, §2, §3, §4, §5
The dose selected for the animal studies was determined by taking the maximum known human daily dose, dividing by the average weight of an adult (˜60-70 kg) to get a human mg/kg dose. Then that number was multiplied by 12 to convert to a mouse dose based on conventional dosing tables. See Nair and Jacob, J Basic Clin Pharm March 2016-May 2016, 7(2):27-31.
Serum collection: A blood sample was then collected from all mice and plasma analyzed for urea nitrogen and creatinine. Plasma was stored at −80° C. for possible future analysis.
Renal Function Evaluation: Renal function and disease progression was evaluated by BUN (blood urea nitrogen) as previously described. The BUN of each study group consisted of the BUN average of all mice in each study group.

For test [4] the test system is unchanged. In words: Example 1: UUO mice, renal fibrosis evaluation (Sirius Red histology score). The following applies: Bemithyl 200, Emoxypine 160, Suplatast Tosylate 60, Udenafil 40, Telmisartan 5 mg/kg PO QD. Here is the method: as §1, §2, §3, §4, §5, §6
Histopathology: Formalin-fixed kidney cross-section samples were subjected histopathological scoring with Sirius Red staining, and imaged at a magnification of ×20, using standard techniques. All three sections were stained and evaluated. […] The presence of interstitial damage and severity score was assessed according to the following criteria: 0=normal, 1=light, 2=moderate, 3=severe. […]

With `CCn1c(=O)c2c(nc(/C=C/c3ccc(OC)c(OC)c3)n2C)n(CC)c1=O` [Istradefylline, 8-[(E)-2-(3,4-dimethoxyphenyl)vinyl]-1,3-diethyl-7-methyl-3,7-dihydro-1H-purine-2,6-dione], the “Mean body weight change, comparison with control groups, in words” value in test [1] is “greater decrease in body weight”. For the same molecule, the “Ligated kidney weight in comparison to control groups, in words” value in test [2] is “increased in comparison to the remaining 13 study groups”.

Turning to `CCOCC(O)COc1ccc(NC(=O)CC[S+](C)C)cc1.Cc1ccc(S(=O)(=O)[O-])cc1` (stereo not drawn) [Suplatast Tosylate, (3-{[4-(3-ethoxy-2-hydroxypropoxy)phenyl]amino}-3-oxopropyl)(dimethyl)sulfonium 4-methylbenzenesulfonate], the “Mean body weight change, comparison with control groups, in words” value in test [1] is reported as “comparable to that of the surgery vehicle control group”. In test [3], the “Reduction in BUN compared to vehicle, significance in words” value was “significant reductions in BUN” and the “BUN in comparison to control groups, in words” value is on record as “decreased in comparison to the sham surgery control group”. In addition, the “Kidney fibrosis / Histology Score, significance and comparison in words” value in test [4] (4-methylbenzenesulfonate) is on record as “the same as the positive control treatment group; also recorded: significant reductions in kidney fibrosis; also recorded: significant reduction in fibrosis compared to vehicle”.

Turning to `CCCOc1ccc(S(=O)(=O)NCCC2CCCN2C)cc1-c1nc(=O)c2c([nH]1)c(CCC)nn2C` (stereo not drawn) [Udenafil], in test [3], the “Reduction in BUN compared to vehicle, significance in words” value was “significant reductions in BUN”; the “BUN in comparison to control groups, in words” value is “less renal dysfunction and disease progression than the positive control treatment; also recorded: decreased in comparison to the sham surgery control group”. Further, the “Kidney fibrosis / Histology Score, significance and comparison in words” value in test [4] was “significant reductions in kidney fibrosis; also recorded: significant reduction in fibrosis compared to vehicle”.
